Our source for the IC50 values is ChEMBL document CHEMBL5325449, “Influence of N-arylsulfonamido d-valine N-substituents on the selectivity and potency of matrix metalloproteinase inhibitors” (Bioorg Med Chem, 2023).

Test [1] has as its target 72 kDa type IV collagenase (Homo sapiens, UniProt P08253). As to the kind of experiment: Inhibition of human recombinant MMP-2 (34 to 660 residues) expressed in CHO cells using (7-methoxycoumarin-4-y1)-acetyl-Pro-Leu-Gly-Leu-[3-(2,4-dinitropheny1)-L-2,3-diaminopropionyl]-Ala-Arg-NH2 as substrate preincubated with enzyme for 30 mins followed by substrate addition and measured after 10 mins by fluorescence based analysis. The format is cell-based.

In a further test the target is Collagenase 3 (Homo sapiens, UniProt P45452). Description: Inhibition of human recombinant MMP-13 (20 to 471 residues) expressed in NS0 cells using (7-methoxycoumarin-4-y1)-acetyl-Pro-Leu-Gly-Leu-[3-(2,4-dinitropheny1)-L-2,3-diaminopropionyl]-Ala-Arg-NH2 as substrate preincubated with enzyme for 30 mins followed by substrate addition and measured after 10 mins by fluorescence based analysis.

The target of test [2] is Matrix metalloproteinase-9 (Homo sapiens, UniProt P14780, Q279R). As to the kind of experiment: Inhibition of human recombinant MMP-9 (20 to 707 residues) Gln279Arg mutant expressed in CHO cells using (7-methoxycoumarin-4-y1)-acetyl-Pro-Leu-Gly-Leu-[3-(2,4-dinitropheny1)-L-2,3-diaminopropionyl]-Ala-Arg-NH2 as substrate preincubated with enzyme for 30 mins followed by substrate addition and measured after 10 mins by fluorescence based analysis. The class given is cell-based.
Matrix metalloproteinase-9, sequence (P14780 107-707 Q279R limits assumed): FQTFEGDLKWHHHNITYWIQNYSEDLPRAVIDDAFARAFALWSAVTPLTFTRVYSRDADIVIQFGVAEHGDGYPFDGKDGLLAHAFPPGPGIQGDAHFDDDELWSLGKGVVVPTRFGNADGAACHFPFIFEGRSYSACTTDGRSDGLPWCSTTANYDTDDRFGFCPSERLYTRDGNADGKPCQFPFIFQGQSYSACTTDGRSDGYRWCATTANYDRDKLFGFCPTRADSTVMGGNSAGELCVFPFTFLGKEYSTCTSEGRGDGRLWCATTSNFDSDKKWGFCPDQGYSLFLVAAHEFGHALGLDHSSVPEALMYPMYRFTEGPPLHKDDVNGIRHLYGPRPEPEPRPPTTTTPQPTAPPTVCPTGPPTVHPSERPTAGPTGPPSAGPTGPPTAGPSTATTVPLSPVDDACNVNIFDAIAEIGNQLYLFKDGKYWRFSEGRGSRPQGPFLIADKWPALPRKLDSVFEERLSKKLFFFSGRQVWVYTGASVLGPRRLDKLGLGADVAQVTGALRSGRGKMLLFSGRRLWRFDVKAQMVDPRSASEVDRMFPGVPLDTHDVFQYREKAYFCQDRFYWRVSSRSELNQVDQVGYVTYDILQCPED

Test [3] concerns the target Macrophage metalloelastase (Homo sapiens, UniProt P39900, V97L). Description: Inhibition of human recombinant MMP-12 (17 to 470 residues) Val97Leu mutant expressed in NS0 cells using (7-methoxycoumarin-4-y1)-acetyl-Pro-Leu-Gly-Leu-[3-(2,4-dinitropheny1)-L-2,3-diaminopropionyl]-Ala-Arg-NH2 as substrate preincubated with enzyme for 30 mins followed by substrate addition and measured after 10 mins by fluorescence based analysis. The format is cell-based.

The next test has as its target Neutrophil collagenase (Homo sapiens, UniProt P22894). Description: Inhibition of human recombinant MMP-8 (21 to 467 residues) expressed in NS0 cells using (7-methoxycoumarin-4-y1)-acetyl-Pro-Leu-Gly-Leu-[3-(2,4-dinitropheny1)-L-2,3-diaminopropionyl]-Ala-Arg-NH2 as substrate preincubated with enzyme for 30 mins followed by substrate addition and measured after 10 mins by fluorescence based analysis. The class given is cell-based.

Macrophage metalloelastase, sequence (P39900 whole entry V97L, the tested form may be a part): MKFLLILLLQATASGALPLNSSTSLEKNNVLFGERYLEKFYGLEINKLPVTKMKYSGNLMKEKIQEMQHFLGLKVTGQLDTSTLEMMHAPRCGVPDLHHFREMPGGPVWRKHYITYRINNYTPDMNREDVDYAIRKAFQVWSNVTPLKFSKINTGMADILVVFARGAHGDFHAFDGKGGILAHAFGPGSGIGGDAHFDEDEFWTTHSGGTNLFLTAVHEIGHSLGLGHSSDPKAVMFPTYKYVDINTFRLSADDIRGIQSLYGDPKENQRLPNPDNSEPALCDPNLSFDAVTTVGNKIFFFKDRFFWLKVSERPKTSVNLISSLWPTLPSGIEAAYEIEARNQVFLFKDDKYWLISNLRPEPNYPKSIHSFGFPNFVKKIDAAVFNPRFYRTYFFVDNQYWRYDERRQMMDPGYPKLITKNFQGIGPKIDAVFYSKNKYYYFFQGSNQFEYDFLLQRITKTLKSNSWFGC
Neutrophil collagenase, sequence (P22894 whole entry, the tested form may be a part): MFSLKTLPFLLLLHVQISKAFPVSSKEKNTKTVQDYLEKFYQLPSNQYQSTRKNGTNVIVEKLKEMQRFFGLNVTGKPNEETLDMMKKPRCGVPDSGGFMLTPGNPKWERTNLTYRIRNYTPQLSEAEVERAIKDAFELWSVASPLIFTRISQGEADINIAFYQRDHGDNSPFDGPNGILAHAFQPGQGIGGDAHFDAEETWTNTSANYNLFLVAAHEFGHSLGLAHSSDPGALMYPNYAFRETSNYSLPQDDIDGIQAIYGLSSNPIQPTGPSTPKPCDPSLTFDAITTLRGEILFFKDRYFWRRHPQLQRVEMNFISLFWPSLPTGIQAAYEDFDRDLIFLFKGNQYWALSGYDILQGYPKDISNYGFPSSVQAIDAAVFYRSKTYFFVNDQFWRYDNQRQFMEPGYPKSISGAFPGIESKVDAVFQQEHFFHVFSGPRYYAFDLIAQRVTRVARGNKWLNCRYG
72 kDa type IV collagenase, sequence (P08253 whole entry, the tested form may be a part): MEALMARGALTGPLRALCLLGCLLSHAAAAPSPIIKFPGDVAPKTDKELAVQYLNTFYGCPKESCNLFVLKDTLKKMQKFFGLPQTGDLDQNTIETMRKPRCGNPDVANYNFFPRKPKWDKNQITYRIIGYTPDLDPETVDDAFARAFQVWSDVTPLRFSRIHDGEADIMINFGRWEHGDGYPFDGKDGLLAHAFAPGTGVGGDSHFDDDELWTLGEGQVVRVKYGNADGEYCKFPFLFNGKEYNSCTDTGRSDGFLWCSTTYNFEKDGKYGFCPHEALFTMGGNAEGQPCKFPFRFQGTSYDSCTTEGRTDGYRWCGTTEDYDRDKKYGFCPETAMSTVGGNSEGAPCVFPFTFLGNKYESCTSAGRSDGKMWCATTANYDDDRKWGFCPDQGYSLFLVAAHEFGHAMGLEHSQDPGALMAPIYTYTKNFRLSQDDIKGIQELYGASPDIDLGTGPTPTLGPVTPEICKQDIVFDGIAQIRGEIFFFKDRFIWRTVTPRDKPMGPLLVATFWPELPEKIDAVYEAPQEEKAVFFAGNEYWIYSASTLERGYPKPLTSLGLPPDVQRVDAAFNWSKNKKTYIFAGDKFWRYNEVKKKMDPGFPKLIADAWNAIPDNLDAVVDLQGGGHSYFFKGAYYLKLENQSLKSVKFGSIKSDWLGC

Regarding `CCCCCCCCN([C@@H](C(=O)O)C(C)C)S(=O)(=O)c1ccc(-c2nc(-c3ccc(C)s3)no2)cc1`, the IC50 was 990 nM in test [1], greater than 10000 nM on Collagenase 3, 4000 nM in test [2] and 3600 nM in test [3].

For `CC(C)[C@@H](NS(=O)(=O)c1ccc(-c2nc(-c3ccc(Cn4cc(CCCF)nn4)s3)no2)cc1)C(=O)O`, the IC50 in test [1] amounted to 16 nM; at Collagenase 3, 12 nM; at Neutrophil collagenase, 22 nM; in test [2], 102 nM; in test [3] it was 13 nM.

Turning to `CCCCN([C@@H](C(=O)O)C(C)C)S(=O)(=O)c1ccc(-c2nc(-c3ccc(C)s3)no2)cc1`, the half-maximal inhibitory concentration (IC50) in test [1] is 10 nM; on Collagenase 3 it was 212 nM; on Neutrophil collagenase, 547 nM; in test [2] it was 87 nM; in test [3] it was 105 nM.

Consider `Cc1ccc(-c2noc(-c3ccc(S(=O)(=O)N(C)[C@@H](C(=O)O)C(C)C)cc3)n2)s1`, for which the IC50 was 5 nM in test [1]; 370 nM on Collagenase 3; 13 nM on Neutrophil collagenase; 36 nM in test [2]; 37 nM in test [3].

On to `CCCN([C@@H](C(=O)O)C(C)C)S(=O)(=O)c1ccc(-c2nc(-c3ccc(C)s3)no2)cc1`, for which the IC50 in test [1] came out at 5 nM; on Collagenase 3, 350 nM; at Neutrophil collagenase, 190 nM; in test [2], 92 nM; in test [3], 26 nM.

Turning to `CCCCCN([C@@H](C(=O)O)C(C)C)S(=O)(=O)c1ccc(-c2nc(-c3ccc(C)s3)no2)cc1`, the IC50 in test [1] worked out at 32 nM; on Collagenase 3, 104 nM; at Neutrophil collagenase, 466 nM; in test [2], 87 nM; in test [3] it was 162 nM.

For `CCCCCCN([C@@H](C(=O)O)C(C)C)S(=O)(=O)c1ccc(-c2nc(-c3ccc(C)s3)no2)cc1`, the IC50 in test [1] was 80 nM; on Collagenase 3, 333 nM; on Neutrophil collagenase, greater than 10000 nM; in test [2], 329 nM; in test [3], 527 nM.

`CC(C)[C@@H](NS(=O)(=O)c1ccc(-c2nc(-c3ccc(Cn4cc(CCCCCF)nn4)s3)no2)cc1)C(=O)O`: the IC50 in test [1] turned out to be 22 nM; at Collagenase 3, 36 nM; on Neutrophil collagenase, 89 nM; in test [2], 1000 nM; in test [3] it was 29 nM.

Take `CCN([C@@H](C(=O)O)C(C)C)S(=O)(=O)c1ccc(-c2nc(-c3ccc(C)s3)no2)cc1`: the IC50 in test [1] is 0.7 nM; on Collagenase 3 it was 252 nM; on Neutrophil collagenase, 149 nM; in test [2] it was 33 nM; in test [3], 58 nM.

With `CCCCCCCCCCCCCCCCN([C@@H](C(=O)O)C(C)C)S(=O)(=O)c1ccc(-c2nc(-c3ccc(C)s3)no2)cc1`, the IC50 (in test [1]; on Collagenase 3; at Neutrophil collagenase; in test [2]; in test [3]) was greater than 10000 nM in each case.

For the compound `Cc1ccc(-c2noc(-c3ccc(S(=O)(=O)N(CCF)[C@@H](C(=O)O)C(C)C)cc3)n2)s1`, the 50% inhibitory concentration (IC50) in test [1] turned out to be 0.59 nM; on Collagenase 3, 458 nM; at Neutrophil collagenase, 90 nM; in test [2], 34 nM; in test [3], 36 nM.

For the compound `Cc1ccc(-c2noc(-c3ccc(S(=O)(=O)N(CCOCOCCCOCCN=[N+]=[N-])[C@@H](C(=O)O)C(C)C)cc3)n2)s1`, the 50% inhibitory concentration (IC50) was 8 nM in test [1]; 93 nM on Collagenase 3; 83 nM at Neutrophil collagenase; 36 nM in test [2]; 182 nM in test [3].

`Cc1ccc(-c2noc(-c3ccc(S(=O)(=O)N(CCCC(F)(F)F)[C@@H](C(=O)O)C(C)C)cc3)n2)s1`: the IC50 in test [1] came to 28 nM; on Collagenase 3, 391 nM; at Neutrophil collagenase it was 371 nM; in test [2] it was 154 nM; in test [3], 164 nM.

Consider `Cc1ccc(-c2noc(-c3ccc(S(=O)(=O)N(Cc4ccccc4)[C@@H](C(=O)O)C(C)C)cc3)n2)s1`, for which the 50% inhibitory concentration (IC50) is 5 nM in test [1]; 987 nM on Collagenase 3; 580 nM at Neutrophil collagenase; 95 nM in test [2]; 113 nM in test [3].

In the case of `Cc1ccc(-c2noc(-c3ccc(S(=O)(=O)N(CCCCCCCCCCCCN=[N+]=[N-])[C@@H](C(=O)O)C(C)C)cc3)n2)s1`, the IC50 in test [1] stood at 57 nM; on Collagenase 3, 2000 nM; at Neutrophil collagenase it was 923 nM; in test [2], 933 nM; in test [3], 4000 nM.

In the case of `Cc1ccc(-c2noc(-c3ccc(S(=O)(=O)N[C@@H](C(=O)O)C(C)C)cc3)n2)s1`, the IC50 in test [1] was 4 nM; at Collagenase 3 it was 57 nM; on Neutrophil collagenase, 26 nM; in test [2], 13 nM; in test [3] it was 14 nM.

As for `Cc1ccc(-c2noc(-c3ccc(S(=O)(=O)N(CCCCF)[C@@H](C(=O)O)C(C)C)cc3)n2)s1`, the half-maximal inhibitory concentration (IC50) in test [1] is 3 nM; at Collagenase 3, 96 nM; on Neutrophil collagenase, 101 nM; in test [2], 25 nM; in test [3], 41 nM.
